Data taken from patent US11479551B2, “MTA-cooperative PRMT5 inhibitors” (Mirati Therapeutics, Inc., priority 2019, dated 2022).
“And” between values parts separate entries of the source, which are not always exact repeats. Identical values can stand only once.

How the values were obtained:
[1] = molecular target: T1, PRMT5/MEP50 complex (Homo sapiens (Human), UniProt O14744); assay: PRMT5:MEP50 HotSpot Assay (full-length histone H2A substrate, plus and minus MTA); format: biochemical
Protocol: (§1) The PRMT5 inhibitory activity of compounds of the present invention was determined using either a PRMT5:MEP50 FlashPlate Assay (Reaction Biology Corporation) or a PRMT5:MEP50 HotSpot Assay (Reaction Biology Corporation).
The assay uses recombinant full-length histone H2A as the PRMT5 substrate. […] The reaction was stopped and transferred to filter paper for detection. The amount of tritiated H2A in each sample was determined using a scintillation counter.

[2] = molecular target: T1, PRMT5/MEP50 complex; assay: PRMT5:MEP50 FlashPlate Assay (histone H4 peptide substrate, plus and minus MTA); format: biochemical
Protocol: as §1
1. PRMT5:MEP50 FlashPlate Assay

[3] = IC50 + 2 μM MTA, in the presence of 2 μM MTA
[4] = in the absence of MTA, read-out: IC50
[5] = IC50 + 2 μM MTA (nM), in the presence of 2 μM MTA

T1 sequence (O14744 2-637): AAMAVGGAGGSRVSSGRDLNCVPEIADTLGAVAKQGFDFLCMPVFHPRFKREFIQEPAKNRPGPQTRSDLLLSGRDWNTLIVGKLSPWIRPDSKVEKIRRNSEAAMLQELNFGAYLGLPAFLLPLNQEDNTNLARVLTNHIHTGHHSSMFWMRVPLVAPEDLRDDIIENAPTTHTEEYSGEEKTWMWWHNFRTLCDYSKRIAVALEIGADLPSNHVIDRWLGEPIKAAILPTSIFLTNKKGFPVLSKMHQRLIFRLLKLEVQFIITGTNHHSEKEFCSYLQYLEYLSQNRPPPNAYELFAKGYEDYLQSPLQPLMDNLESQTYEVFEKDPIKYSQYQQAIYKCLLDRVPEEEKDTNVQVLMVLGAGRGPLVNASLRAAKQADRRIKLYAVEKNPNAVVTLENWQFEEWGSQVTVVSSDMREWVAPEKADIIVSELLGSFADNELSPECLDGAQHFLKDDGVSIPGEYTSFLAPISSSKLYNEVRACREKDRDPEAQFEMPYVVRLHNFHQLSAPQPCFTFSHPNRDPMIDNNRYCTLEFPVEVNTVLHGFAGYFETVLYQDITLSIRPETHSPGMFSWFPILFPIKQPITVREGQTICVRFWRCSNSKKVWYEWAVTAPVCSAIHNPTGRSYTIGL
T1 sequence (Q9BQA1 2-342 partner): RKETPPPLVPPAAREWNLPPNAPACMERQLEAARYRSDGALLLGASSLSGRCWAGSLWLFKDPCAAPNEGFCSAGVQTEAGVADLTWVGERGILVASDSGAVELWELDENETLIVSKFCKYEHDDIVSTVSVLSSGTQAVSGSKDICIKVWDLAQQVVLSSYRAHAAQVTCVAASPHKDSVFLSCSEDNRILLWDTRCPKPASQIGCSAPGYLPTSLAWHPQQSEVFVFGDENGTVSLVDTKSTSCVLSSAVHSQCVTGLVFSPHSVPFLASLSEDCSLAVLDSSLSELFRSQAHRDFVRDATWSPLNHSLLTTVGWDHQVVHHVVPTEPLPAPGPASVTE

SMILES | IC50 [1, 3] | also measured
Cn1ncc(-c2ccc3c(=O)[nH]nc(CN)c3c2)c1-c1cccc[n+]1[O-] [Example 4-120, 2-(4-(4-(aminomethyl)-1-oxo-1,2-dihydrophthalazin-6-yl)-1-methyl-1H-pyrazol-5-yl)pyridine 1-oxide] | > 10000 nM | –
CN(c1cncc(-c2ccc3c(=O)[nH]nc(CN)c3c2)c1)c1cccc2cccnc12 [Example 4-122, 4-(aminomethyl)-6-(5-(methyl(quinolin-8-yl)amino)pyridin-3-yl)phthalazin-1(2H)-one] | 3820 nM | –
COc1cc(C#N)c(-c2c(-c3ccc4c(=O)[nH]nc(CN)c4c3)cnn2C)cc1Cl [Example 4-133, 2-(4-(4-(aminomethyl)-1-oxo-1,2-dihydrophthalazin-6-yl)-1-methyl-1H-pyrazol-5-yl)-4-chloro-5-methoxybenzonitrile] | 1570 nM | –
CCc1ccc(-c2c(-c3ccc4c(=O)[nH]nc(CN)c4c3)cnn2C)cc1 [Example 4-134, 4-(aminomethyl)-6-(5-(4-ethylphenyl)-1-methyl-1H-pyrazol-4-yl)phthalazin-1(2H)-one] | 2730 nM | –
Cn1ncc(-c2ccc3c(=O)[nH]nc(CN)c3c2)c1-c1ccc(OC2CCC2)cc1 [Example 4-138, 4-(aminomethyl)-6-(5-(4-cyclobutoxyphenyl)-1-methyl-1H-pyrazol-4-yl)phthalazin-1(2H)-one] | 354 nM | –
Cn1ncc(-c2ccc3c(=O)[nH]nc(CN)c3c2)c1-c1c(F)cccc1C#N [Example 4-152, 2-(4-(4-(aminomethyl)-1-oxo-1,2-dihydrophthalazin-6-yl)-1-methyl-1H-pyrazol-5-yl)-3-fluorobenzonitrile] | 978 nM and 1910 nM | –
Cn1ncc(-c2ccc3c(=O)[nH]nc(CN)c3c2)c1-c1ccccc1C(F)F [Example 4-153, 4-(aminomethyl)-6-(5-(2-(difluoromethyl)phenyl)-1-methyl-1H-pyrazol-4-yl)phthalazin-1(2H)-one] | 1650 nM | –
Cn1ncc(-c2ccc3c(=O)[nH]nc(CN)c3c2)c1OCc1ccccc1Cl [Example 4-154, 4-(aminomethyl)-6-(5-((2-chlorobenzyl)oxy)-1-methyl-1H-pyrazol-4-yl)phthalazin-1(2H)-one] | 3280 nM | –
Cn1ncc(-c2ccc3c(=O)[nH]nc(CN)c3c2)c1OCc1cccc(Cl)c1 [Example 4-155, 4-(aminomethyl)-6-(5-((3-chlorobenzyl)oxy)-1-methyl-1H-pyrazol-4-yl)phthalazin-1(2H)-one] | 3460 nM | –
Cn1ncc(-c2ccc3c(=O)[nH]nc(CN)c3c2)c1OCc1ccc(Cl)cc1 [Example 4-156, 4-(aminomethyl)-6-(5-((4-chlorobenzyl)oxy)-1-methyl-1H-pyrazol-4-yl)phthalazin-1(2H)-one] | 9130 nM | –
Cn1ncc(-c2ccc3c(=O)[nH]nc(CN)c3c2)c1-c1cc(Cl)cc(Cl)c1C#N [Example 4-165, 2-(4-(4-(aminomethyl)-1-oxo-1,2-dihydrophthalazin-6-yl)-1-methyl-1H-pyrazol-5-yl)-4,6-dichlorobenzonitrile] | 2410 nM | –
Cn1ncc(-c2ccc3c(=O)[nH]nc(CN)c3c2)c1-c1cc2cccnc2cc1C#N [Example 4-166, 6-(4-(4-(aminomethyl)-1-oxo-1,2-dihydrophthalazin-6-yl)-1-methyl-1H-pyrazol-5-yl)quinoline-7-carbonitrile] | 4510 nM | –
COc1ccc(-c2cncc(-c3ccc4c(=O)[nH]nc(CN)c4c3)c2)c(C#N)c1 [Example 8-3, 2-(5-(4-(aminomethyl)-1-oxo-1,2-dihydrophthalazin-6-yl)pyridin-3-yl)-5-methoxybenzonitrile] | – | IC50 [2, 5]: 2.3 nM; IC50 [2, 4]: 237 nM
N#Cc1cc(Cl)ccc1-c1cncc(-c2ccc3c(=O)[nH]nc(CN)c3c2)c1 [Example 8-4, 2-(5-(4-(aminomethyl)-1-oxo-1,2-dihydrophthalazin-6-yl)pyridin-3-yl)-5-chlorobenzonitrile] | – | IC50 [2, 5]: 3.1 nM; IC50 [2, 4]: 313 nM
N#Cc1cc(F)ccc1-c1cncc(-c2ccc3c(=O)[nH]nc(CN)c3c2)c1 [Example 8-5, 2-(5-(4-(aminomethyl)-1-oxo-1,2-dihydrophthalazin-6-yl)pyridin-3-yl)-5-fluorobenzonitrile] | – | IC50 [2, 5]: 23 nM; IC50 [2, 4]: 691 nM
N#Cc1ccc(Cl)cc1-c1cncc(-c2ccc3c(=O)[nH]nc(CN)c3c2)c1 [Example 8-6, 2-(5-(4-(aminomethyl)-1-oxo-1,2-dihydrophthalazin-6-yl)pyridin-3-yl)-4-chlorobenzonitrile] | – | IC50 [2, 5]: 52 nM; IC50 [2, 4]: 2140 nM
Cc1ccc(C#N)c(-c2cncc(-c3ccc4c(=O)[nH]nc(CN)c4c3)c2)c1 [Example 8-7, 2-(5-(4-(aminomethyl)-1-oxo-1,2-dihydrophthalazin-6-yl)pyridin-3-yl)-4-methylbenzonitrile] | – | IC50 [2, 5]: 33 nM; IC50 [2, 4]: 931 nM
COc1ccc(C#N)c(-c2cncc(-c3ccc4c(=O)[nH]nc(CN)c4c3)c2)c1 [Example 8-8, 2-(5-(4-(aminomethyl)-1-oxo-1,2-dihydrophthalazin-6-yl)pyridin-3-yl)-4-methoxybenzonitrile] | – | IC50 [2, 5]: 20 nM; IC50 [2, 4]: 795 nM
N#CCc1ccc2c(CN)n[nH]c(=O)c2c1 [Example 13-1, 2-[1-(aminomethyl)-4-oxo-3H-phthalazin-6-yl]acetonitrile] | – | IC50 [2, 5]: 25000 nM; IC50 [2, 4]: 89600 nM

The next lines start with results.

IC50 [1, 3] | SMILES | also measured
1020 nM | CCOc1ccn2ncc(-c3ccc4c(=O)[nH]nc(CN)c4c3)c2c1 [Example 4-112, 4-(aminomethyl)-6-(5-ethoxypyrazolo[1,5-a]pyridin-3-yl)phthalazin-1(2H)-one] | –
561 nM | CC(C)Oc1ccn2ncc(-c3ccc4c(=O)[nH]nc(CN)c4c3)c2c1 [Example 4-113, 4-(aminomethyl)-6-(5-isopropoxypyrazolo[1,5-a]pyridin-3-yl)phthalazin-1(2H)-one] | –
486 nM | NCc1n[nH]c(=O)c2ccc(-c3cnn4ccc(Oc5ccccc5)cc34)cc12 [Example 4-114, 4-(aminomethyl)-6-(5-phenoxypyrazolo[1,5-a]pyridin-3-yl)phthalazin-1(2H)-one] | –
377 nM | Cn1ncc(-c2ccc3c(=O)[nH]nc(CN)c3c2)c1OCc1ccccc1 [Example 4-115, 4-(aminomethyl)-6-(5-(benzyloxy)-1-methyl-1H-pyrazol-4-yl)phthalazin-1(2H)-one] | –
1080 nM | Cn1ncc(-c2ccc3c(=O)[nH]nc(CN)c3c2)c1OCC1CC1 [Example 4-116, 4-(aminomethyl)-6-(5-(cyclopropylmethoxy)-1-methyl-1H-pyrazol-4-yl)phthalazin-1(2H)-one] | –
536 nM | Cn1ncc(-c2ccc3c(=O)[nH]nc(CN)c3c2)c1CCc1ccccc1 [Example 4-117, 4-(aminomethyl)-6-(1-methyl-5-phenethyl-1H-pyrazol-4-yl)phthalazin-1(2H)-one] | –
724 nM | Cc1cccc(-c2c(-c3ccc4c(=O)[nH]nc(CN)c4c3)cnn2C)c1C#N [Example 4-118, 2-(4-(4-(aminomethyl)-1-oxo-1,2-dihydrophthalazin-6-yl)-1-methyl-1H-pyrazol-5-yl)-6-methylbenzonitrile] | IC50 [1, 4]: 9920 nM
441 nM | Cn1ncc(-c2ccc3c(=O)[nH]nc(CN)c3c2)c1-c1cccc(Cl)c1C#N [Example 4-119, 2-(4-(4-(aminomethyl)-1-oxo-1,2-dihydrophthalazin-6-yl)-1-methyl-1H-pyrazol-5-yl)-6-chlorobenzonitrile] | IC50 [1, 4]: 5260 nM
177 nM | NCc1n[nH]c(=O)c2ccc(-c3cncc(Oc4cccc5cccnc45)c3)cc12 [Example 4-121, 4-(aminomethyl)-6-(5-(quinolin-8-yloxy)pyridin-3-yl)phthalazin-1(2H)-one] | –
549 nM | CCc1cccc(-c2c(-c3ccc4c(=O)[nH]nc(CN)c4c3)cnn2C)c1C#N [Example 4-123, 2-(4-(4-(aminomethyl)-1-oxo-1,2-dihydrophthalazin-6-yl)-1-methyl-1H-pyrazol-5-yl)-6-ethylbenzonitrile] | –
826 nM | CCc1ccc(-c2c(-c3ccc4c(=O)[nH]nc(CN)c4c3)cnn2C)c(C#N)c1 [Example 4-124, 2-(4-(4-(aminomethyl)-1-oxo-1,2-dihydrophthalazin-6-yl)-1-methyl-1H-pyrazol-5-yl)-5-ethylbenzonitrile] | –
1000 nM | CCc1ccc(C#N)c(-c2c(-c3ccc4c(=O)[nH]nc(CN)c4c3)cnn2C)c1 [Example 4-125, 2-(4-(4-(aminomethyl)-1-oxo-1,2-dihydrophthalazin-6-yl)-1-methyl-1H-pyrazol-5-yl)-4-ethylbenzonitrile] | –
361 nM | Cn1ncc(-c2ccc3c(=O)[nH]nc(CN)c3c2)c1-c1ccc(C2CC2)cc1C#N [Example 4-126, 2-(4-(4-(aminomethyl)-1-oxo-1,2-dihydrophthalazin-6-yl)-1-methyl-1H-pyrazol-5-yl)-5-cyclopropylbenzonitrile] | –
872 nM | Cn1ncc(-c2ccc3c(=O)[nH]nc(CN)c3c2)c1-c1ccc(OC2CC2)cc1 [Example 4-136, 4-(aminomethyl)-6-(5-(4-cyclopropoxyphenyl)-1-methyl-1H-pyrazol-4-yl)phthalazin-1(2H)-one] | –
1170 nM | Cn1ncc(-c2ccc3c(=O)[nH]nc(CN)c3c2)c1-c1ccccc1Cl [Example 4-143, 4-(aminomethyl)-6-(5-(2-chlorophenyl)-1-methyl-1H-pyrazol-4-yl)phthalazin-1(2H)-one] | –
454 nM | Cn1ncc(-c2ccc3c(=O)[nH]nc(CN)c3c2)c1-c1c(Cl)cccc1Cl [Example 4-144, 4-(aminomethyl)-6-(5-(2,6-dichlorophenyl)-1-methyl-1H-pyrazol-4-yl)phthalazin-1(2H)-one] | –
842 nM | COc1ccc(Oc2cncc(-c3ccc4c(=O)[nH]nc(CN)c4c3)c2)c(OC)c1 [Example 4-162, 4-(aminomethyl)-6-(5-(2,4-dimethoxyphenoxy)pyridin-3-yl)phthalazin-1(2H)-one] | –
